Patent US8933019B2, “Antiviral cell-penetrating peptides” (priority 2008, dated 2015)
Where two headings read alike, the source gives them in different places. Bridge positions count the residues as written; N and C are the ends. Square brackets hold non-standard residues; d marks the D form. Peptide text beside a SMILES is read from it. R8 = C=CCCCCCC[C@@](C)(N)C(=O)O; S5 = C=CCCC[C@](C)(N)C(=O)O

Assays:
HIV-1 IIIB [1] = test: Release and infectivity of HIV-1 virus released from infected MT-2 cells after treatment; assay type: cell-based; conditions: 500 nM, normalized for p24, TCID50
Protocol: On the fourth day post-infection, the supernatants were collected and filtered with a 0.45 μm PVDF membrane. One aliquot of the supernatants from each sample was mixed 1:1 with a solution of 5% Triton X-100 for p24 quantification, and stored at 4° C., another aliquot was immediately frozen at −80° C. and used to compare the infectivity of the viral particles released by NYAD-201 and NYAD-202 treated cells to the viral particles released by untreated cells. The protein p24 was first quantified by sandwich-ELISA, then the viral samples were normalized for the p24 content and titered to calculate the TCID50. MT-2 cells were infected with a two fold dilutions of virus from NYAD-201 and NYAD-202 treated and untreated cells. […] On the fourth day post infection supernatants were collected for p24 quantification by sandwich-ELISA and the TCID50 was calculated by the Spearman-Karber statistical method. […]
For these reasons, not only the quantity but also the quality of the viral particles released in the supernatant was evaluated. First, the p24/viral particles released in the supernatant following NYAD-201 and NYAD-202 treatment were quantified, then starting with the same amount of p24 per sample, the viruses released in the supernatant were titered. The TCID50 was calculated and expressed as percentage infectivity with respect to the untreated positive control. […]

Jurkat cells = test: Cytotoxicity, LDH leakage, Jurkat cells; assay type: cell-based; conditions: 30 min, 2 hr and 4 hr of exposure
Protocol: Cytotoxicity was also evaluated in Jurkat cells using a Promega LDH leakage detection kit. Jurkat cells were plated at 10^4 cells/well in a volume of 200 μl. The test was performed after 30 min, 2 hr and 4 hr of exposure to the NYAD-201, NYAD-202 and NYAD-203 compounds.

[2] = Cytotoxicity, XTT method, PBMC; assay type: cell-based; conditions: human
Protocol: (§1) Cytotoxicity of peptides in MT-2 cells and PBMC was measured by the XTT [(sodium 3′-(1-(phenylamino)-carbonyl)-3,4-tetrazolium-bis(4-methoxy-6-nitro) bezenesulfonic acid hydrate)] method as previously described (Jiang et al., 2004). Briefly, for MT-2 cells, 100 μl of a peptide at graded concentrations was added to an equal volume of cells (1×10^5 cells/ml) in 96-well plates followed by incubation at 37° C. for 4 days, which ran parallel to the neutralization assay in MT-2 (except medium was added instead of virus). In the case of PBMC, 5×10^5 cells/ml were used and the cytotoxicity was measured after 7 days. After addition of XTT (PolySciences, Inc.), the soluble intracellular formazan was quantitated colorimetrically at 450 nm 4 hr later with a reference at 620 nm. The percent of cytotoxicity and the CC50 values were calculated as above (Table 2 and Table 3).

HIV-1 AZT-R = conditions: read-out: IC50 (μM ± SD), HIV-1 AZT-R; RT-resistant isolate, subtype B, MT-2, coreceptor X4
Protocol: (§2) The inhibitory activity of NYAD-201, and related stapled peptides on infection by laboratory-adapted HIV-1 strains was determined as previously described (Jiang et al. J Exp. Med 174:1557-1563, 1991) with minor modifications. Azidothymidine (AZT) was used as a positive control in the infectivity assays. In brief, 1×10^4 MT-2 cells were infected with HIV-1 at 100 TCID50 (50% tissue culture infective dose) (0.01 MOI [multiplicity of infection]) in 200 μl RPMI 1640 medium containing 10% FBS in the presence or absence of peptides at graded concentrations overnight. The culture supernatants were then removed and fresh media containing freshly prepared test peptide were added. On the fourth day post-infection, 100 μl of culture supernatants were collected from each well, mixed with equal volume of 5% Triton X-100 and tested for p24 antigen by ELISA.
(§3) In addition, NYAD-201, NYAD-202 and NYAD-203 were also tested using several laboratory-adapted and primary isolates in MT-2 cells and PBMC (peripheral blood mononuclear cells), respectively.

HIV-1 IIIB [3] = system: HIV-1 IIIB
Protocol: as §2, §3

[4] = Cytotoxicity, XTT method, MT-2 cells; assay type: cell-based, human; conditions: human, read-out: CC50 (μM) ± SD, cytotoxicity in MT-2 cells
Protocol: as §1

[5] = read-out: IC50 (μM) ± SD, antiviral activity against HIV-1 IIIB, MT-2 cells, p24 production, fourth day post-infection

In the case of `Cc1c(O)cccc1C(=O)N[C@@H](CSc1ccccc1)[C@H](O)CN1C[C@H]2CCCC[C@H]2C[C@H]1C(=O)NC(C)(C)C` [NFV, nelfinavir, reference compound], the “Infectivity of virus produced by treated cells” value (HIV-1 IIIB [1]) is reported as “not infectious or slightly infectious”.
With `CSCC[C@@H]1NC(=O)[C@H](Cc2c[nH]c3ccccc23)NC(=O)[C@@](C)(NC(=O)[C@H](CCCCN)NC(=O)[C@@H](NC(=O)[C@H](CCC(=O)O)NC(=O)[C@H](CCC(N)=O)NC(=O)[C@H](C)N)C(C)C)CCCC=CCCC[C@@](C)(C(=O)N[C@H](C(=O)N[C@@H](CC(C)C)C(=O)N[C@@H](CC(C)C)C(=O)N[C@H](C(=O)N[C@@H](C)C(=O)N[C@@H](CCCCN)C(=O)N[C@@H](CCCCN)C(=O)N[C@@H](CCCCN)C(N)=O)C(C)C)[C@@H](C)O)NC(=O)[C@H]([C@@H](C)O)NC1=O` [NYAD-203, AQEVKXWMTXTLLVAKKK] (H-AQEVK[S5]WMT[S5]TLLVAKKK-NH2; staple 6-10) the “Cytotoxicity in Jurkat cells (LDH leakage)” value (Jurkat cells) was “more toxic at the two higher doses”, the CC50 at 7 days [2] was 16 ± 1.47 µM and the IC50 (HIV-1 AZT-R) was 11.1 ± 3.82 µM. The IC50 (HIV-1 IIIB [3]; read-out: IC50 (μM ± SD), HIV-1 IIIB, laboratory strain, subtype B, MT-2, coreceptor X4) was 6.29 ± 0.54 µM, the IC50 (HIV-1 IIIB [3]; [5]) was 6.29 ± 0.54 µM and the CC50 at 4 days [4] was 13.2 ± 0.5 µM.
In the case of `CSCC[C@@H]1NC(=O)[C@H](Cc2c[nH]c3ccccc23)NC(=O)[C@@](C)(NC(=O)[C@H](CCCCN)NC(=O)[C@@H](NC(=O)[C@H](C)NC(=O)[C@H](CCC(N)=O)NC(=O)[C@H](C)N)C(C)C)CCCC=CCCC[C@@](C)(C(=O)N[C@H](C(=O)N[C@@H](CC(C)C)C(=O)N[C@@H](CC(C)C)C(=O)N[C@H](C(=O)N[C@@H](CCC(=O)O)C(=O)N[C@@H](CC(N)=O)C(=O)N[C@@H](C)C(N)=O)C(C)C)[C@@H](C)O)NC(=O)[C@H]([C@@H](C)O)NC1=O` [NYAD-212, AQAVKXWMTXTLLVENA] (H-AQAVK[S5]WMT[S5]TLLVENA-NH2; staple 6-10), the IC50 (HIV-1 IIIB [3]; [5]) is reported as 5.95 ± 0.33 µM and the CC50 at 4 days [4] is reported as over 102 µM.
For `CSCC[C@@H]1NC(=O)[C@H](Cc2c[nH]c3ccccc23)NC(=O)[C@@](C)(NC(=O)[C@H](CCCCN)NC(=O)[C@@H](NC(=O)[C@H](C)NC(=O)[C@H](CCC(N)=O)NC(=O)[C@H](C)N)C(C)C)CCCC=CCCC[C@@](C)(C(=O)N[C@H](C(=O)N[C@@H](CC(C)C)C(=O)N[C@@H](CC(C)C)C(=O)N[C@@H](CCCCN)C(=O)N[C@@H](C)C(=O)N[C@@H](CC(N)=O)C(=O)N[C@@H](C)C(=O)N[C@@H](CCC(=O)O)C(N)=O)[C@@H](C)O)NC(=O)[C@H]([C@@H](C)O)NC1=O` [NYAD-214, AQAVKXWMTXTLLKANAE] (H-AQAVK[S5]WMT[S5]TLLKANAE-NH2; staple 6-10), the IC50 (HIV-1 IIIB [3]; [5]) was 17.4 ± 0.9 µM and the CC50 at 4 days [4] was over 48 µM.
`CSCC[C@@H]1NC(=O)[C@H](CCCCN)NC(=O)[C@@](C)(NC(=O)[C@H](Cc2c[nH]c3ccccc23)NC(=O)[C@@H](NC(=O)[C@H](CC(C)C)NC(=O)[C@H](CCC(N)=O)NC(=O)[C@@H](N)CCC(=O)O)C(C)C)CCCC=CCCC[C@@](C)(C(=O)N[C@@H](C)C(=O)N[C@@H](CC(C)C)C(=O)N[C@@H](C)C(=O)N[C@H](C(=O)N[C@H](C(N)=O)[C@@H](C)O)C(C)C)NC(=O)[C@H]([C@@H](C)O)NC1=O` [NYAD-215, EQLVWXKMTXALAVT, reference compound] (H-EQLVW[S5]KMT[S5]ALAVT-NH2; staple 6-10) gave an IC50 (HIV-1 IIIB [3]; [5]) of over 56 µM and a CC50 at 4 days [4] of over 112 µM.
Work on `CSCC[C@H](NC(=O)[C@H](Cc1c[nH]c2ccccc12)NC(=O)[C@H](CC(N)=O)NC(=O)[C@H](CCCCN)NC(=O)[C@@H](NC(=O)[C@H](C)NC(=O)[C@H](CCC(N)=O)NC(=O)[C@H](C)N)C(C)C)C(=O)N[C@H](C(=O)N[C@@]1(C)CCCC=CCCC[C@@](C)(C(=O)N[C@@H](C)C(N)=O)NC(=O)[C@H](CC(C)C)NC(=O)[C@H](CC(C)C)NC(=O)[C@H]([C@@H](C)O)NC1=O)[C@@H](C)O` [NYAD-218, AQAVKNWMTXTLLXA] (H-AQAVKNWMT[S5]TLL[S5]A-NH2; staple 10-14) yielded an IC50 (HIV-1 IIIB [3]; [5]) of 4.6 ± 0.4 µM and a CC50 at 4 days [4] of 67.3 ± 4.4 µM.
`CC(C)C[C@H](NC(=O)[C@H](CC(C)C)NC(=O)[C@@H](NC(=O)[C@]1(C)CCCC=CCCC[C@](C)(NC(=O)[C@H](CCCCN)NC(=O)[C@H](Cc2c[nH]c3ccccc23)NC(=O)[C@H](C)NC(=O)[C@H](CCC(N)=O)NC(=O)[C@H](C)N)C(=O)N[C@@H](Cc2c[nH]c3ccccc23)C(=O)N[C@@H](C)C(=O)N[C@@H]([C@@H](C)O)C(=O)N1)[C@@H](C)O)C(=O)N[C@H](C(=O)N[C@@H](C)C(=O)N[C@@H](CCC(=O)O)C(N)=O)C(C)C` [NYAD-219, AQAWKXWATXTLLVAE] (H-AQAWK[S5]WAT[S5]TLLVAE-NH2; staple 6-10) showed an IC50 (HIV-1 IIIB [3]; [5]) of 3.7 ± 0.06 µM and a CC50 at 4 days [4] of over 106 µM.
Compound `CSCC[C@@H]1NC(=O)[C@H](Cc2c[nH]c3ccccc23)NC(=O)[C@@](C)(NC(=O)[C@H](CCCCN)NC(=O)[C@@H](NC(=O)[C@H](C)NC(=O)[C@H](CCC(N)=O)NC(=O)[C@H](C)N)C(C)C)CCCC=CCCC[C@@](C)(C(=O)N[C@H](C(=O)N[C@@H](CC(C)C)C(=O)N[C@@H](CCCCN)C(=O)N[C@H](C(=O)N[C@@H](C)C(=O)N[C@@H](CCC(=O)O)C(N)=O)C(C)C)[C@@H](C)O)NC(=O)[C@H](CCC(=O)O)NC1=O` [NYAD-220, AQAVKXWMEXTLKVAE] (H-AQAVK[S5]WME[S5]TLKVAE-NH2; staple 6-10) has an IC50 (HIV-1 IIIB [3]; [5]) of over 52.7 µM and a CC50 at 4 days [4] of over 105 µM.
In the case of `CSCC[C@@H]1NC(=O)[C@H](Cc2c[nH]c3ccccc23)NC(=O)[C@](C)(NC(=O)[C@H](CCCCN)NC(=O)[C@@H](NC(=O)[C@H](C)NC(=O)[C@H](CCC(N)=O)NC(=O)[C@H](C)N)C(C)C)CCCCCCC=CCCC[C@@](C)(C(=O)N[C@H](C(=O)N[C@@H](C)C(N)=O)C(C)C)NC(=O)[C@H](CC(C)C)NC(=O)[C@H]([C@@H](C)O)NC(=O)[C@H](CCC(=O)O)NC(=O)[C@H]([C@@H](C)O)NC1=O` [NYAD-221, AQAVKZWMTETLXVA] (H-AQAVK[R8]WMTETL[S5]VA-NH2; staple 6-13), the IC50 (HIV-1 IIIB [3]; [5]) is reported as 7.97 ± 1.03 µM and the CC50 at 4 days [4] is reported as over 140 µM.
In the case of `CC(C)C[C@@H]1NC(=O)[C@H]([C@@H](C)O)NC(=O)[C@H](CCC(=O)O)NC(=O)[C@H]([C@@H](C)O)NC(=O)[C@H](C)NC(=O)[C@H](Cc2c[nH]c3ccccc23)NC(=O)[C@](C)(NC(=O)[C@H](CCCCN)NC(=O)[C@H](Cc2c[nH]c3ccccc23)NC(=O)[C@H](C)NC(=O)[C@H](CCC(N)=O)NC(=O)[C@H](C)N)CCCCCCC=CCCC[C@@](C)(C(=O)N[C@H](C(=O)N[C@@H](C)C(=O)N[C@@H](CC(N)=O)C(N)=O)C(C)C)NC1=O` [NYAD-222, AQAWKZWATETLXVAN] (H-AQAWK[R8]WATETL[S5]VAN-NH2; staple 6-13), the IC50 (HIV-1 IIIB [3]; [5]) is reported as 9.3 ± 1.6 µM and the CC50 at 4 days [4] is reported as over 130 µM.
In the case of `CC[C@H](C)[C@H](N)C(=O)N[C@@H](C)C(=O)N[C@@H](CCC(N)=O)C(=O)N[C@@H](C)C(=O)N[C@@H](CCCCN)C(=O)N[C@H](C(=O)N[C@@H](CCC(=O)O)C(=O)N[C@@]1(C)CCCC=CCCC[C@@](C)(C(=O)N[C@H](C(=O)N[C@@H](CC(C)C)C(=O)N[C@@H](CC(C)C)C(=O)N[C@H](C(=O)N[C@@H](C)C(=O)N[C@@H](CC(N)=O)C(N)=O)C(C)C)[C@@H](C)O)NC(=O)[C@H]([C@@H](C)O)NC(=O)[C@H](CCSC)NC(=O)[C@H](Cc2c[nH]c3ccccc23)NC1=O)C(C)C` [NYAD-223, IAQAKVEXWMTXTLLVAN] (H-IAQAKVE[S5]WMT[S5]TLLVAN-NH2; staple 8-12), the IC50 (HIV-1 IIIB [3]; [5]) is reported as 7.2 ± 1.2 µM and the CC50 at 4 days [4] is reported as over 124 µM.
